Test results as given in patent US9260408B2, “Dihydroquinoline-2-one derivatives” (Hoffmann-La Roche Inc., priority 2011, dated 2016).
Structures can show the parent of a compound that is named as a salt.

Experiments:
human CYP11B1 = biological target: T1, human CYP11B1 (Homo sapiens, UniProt P15538); assay: G-402 cellular enzyme assay, human CYP11B1 (cortisol release, HTRF); assay type: cell-based; conditions: G-402 cells expressing human CYP11B1; 1 μM Deoxycortisol
T1 construct: expressed in transfected cells
T1 sequence (P15538 25-503): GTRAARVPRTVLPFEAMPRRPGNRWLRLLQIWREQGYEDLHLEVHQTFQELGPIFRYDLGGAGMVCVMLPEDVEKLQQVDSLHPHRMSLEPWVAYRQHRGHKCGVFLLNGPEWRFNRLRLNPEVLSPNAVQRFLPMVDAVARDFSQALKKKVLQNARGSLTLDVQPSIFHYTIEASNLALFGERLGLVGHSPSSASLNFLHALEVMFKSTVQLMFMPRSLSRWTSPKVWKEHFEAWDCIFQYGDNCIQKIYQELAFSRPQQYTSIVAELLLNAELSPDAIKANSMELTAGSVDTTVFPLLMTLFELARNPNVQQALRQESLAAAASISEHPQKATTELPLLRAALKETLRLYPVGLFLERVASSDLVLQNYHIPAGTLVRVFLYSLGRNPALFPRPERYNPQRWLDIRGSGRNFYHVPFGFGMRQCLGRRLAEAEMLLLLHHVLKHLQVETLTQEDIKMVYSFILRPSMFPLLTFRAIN
Excerpt: (§1) Herein we identified the use of the G-402 cell line as a host cell to ectopically express (transiently or stably) enzymes of the CYP11 family. Specifically we developed stable G-402 cells expressing ectopically human CYP11B1, human CYP11B2, human CYP11A1, cynomolgus CYP11B1 or cynomolgus CYP11B2 enzyme activity. Importantly the identified cell line G-402 expresses co-factors (adrenodoxin and adrenodoxin reductase) important for the activity of the CYP11 family and no relevant enzyme activity of the CYP11 family (in comparison to H295R cells) was detected in these cells. Therefore the G-402 cell line is uniquely suited as a host cell for the ectopic expression of enzymes from the CYP11 family.
(§2) G-402 cells can be obtained from ATCC(CRL-1440) and were originally derived from a renal leiomyoblastoma.
(§3) The expression plasmids contains the ORF for either human/cyno CYP11B1 or CYP11B2 under the control of a suitable promoter (CMV-promoter) and a suitable resistance marker (neomycin). Using standard techniques the expression plasmid is transfected into G-402 cells and these cells are then selected for expressing the given resistance markers. Individual cell-clones are then selected and assessed for displaying the desired enzymatic activity using 11-Deoxycorticosterone (Cyp11B2) or 11-Deoxycortisol (Cyp11B1) as a substrate.
(§4) G-402 cells expressing CYP11 constructs were established as described above and maintained in McCoy's 5a Medium Modified, ATCC Catalog No. 30-2007 containing 10% FCS and 400 μg/ml G418 (Geneticin) at 37° C. under an atmosphere of 5% CO2/95% air. Cellular enzyme assays were performed in DMEM/F12 medium containing 2.5% charcoal treated FCS and appropriate concentration of substrate (0.3-10 uM 11-Deoxycorticosterone, 11-Deoxycortisol or Corticosterone). For assaying enzymatic activity, cells were plated onto 96 well plates and incubated for 16 h. An aliquot of the supernatant is then transferred and analyzed for the concentration of the expected product (Aldosterone for CYP11B2; Cortisol for CYP11B1). The concentrations of these steroids can be determined using HTRF assays from CisBio analyzing either Aldosterone or Cortisol.
(§5) Inhibition of the release of produced steroids can be used as a measure of the respective enzyme inhibition by test compounds added during the cellular enzyme assay. The dose dependent inhibition of enzymatic activity by a compound is calculated by means of plotting added inhibitor concentrations (x-axes) vs. measured steroid/product level (y-axes). The inhibition is then calculated by fitting the following 4-parameter sigmoidal function (Morgan-Mercer-Flodin (MMF) model) to the raw data points using the least squares method:
(§6) [formula] wherein, A is the maximum y value, B is the EC50 factor determined using XLFit, C is the minimum y value and D is the slope value.
(§7) EC50 values for compounds claimed herein were tested with the G402-based assay system described. Cyp11B2 enzyme activity was tested in presence of 1 μM Deoxycorticosterone and variable amounts of inhibitors; Cyp11B1 enzyme activity was tested in presence of 1 μM Deoxycortisol and variable amounts of inhibitors.

human CYP11B2 = biological target: T2, human CYP11B2 (Homo sapiens, UniProt P19099); assay: G-402 cellular enzyme assay, human CYP11B2 (aldosterone release, HTRF); assay type: cell-based; conditions: G-402 cells expressing human CYP11B2; 1 μM Deoxycorticosterone
T2 construct: expressed in transfected cells
T2 sequence (P19099 25-503): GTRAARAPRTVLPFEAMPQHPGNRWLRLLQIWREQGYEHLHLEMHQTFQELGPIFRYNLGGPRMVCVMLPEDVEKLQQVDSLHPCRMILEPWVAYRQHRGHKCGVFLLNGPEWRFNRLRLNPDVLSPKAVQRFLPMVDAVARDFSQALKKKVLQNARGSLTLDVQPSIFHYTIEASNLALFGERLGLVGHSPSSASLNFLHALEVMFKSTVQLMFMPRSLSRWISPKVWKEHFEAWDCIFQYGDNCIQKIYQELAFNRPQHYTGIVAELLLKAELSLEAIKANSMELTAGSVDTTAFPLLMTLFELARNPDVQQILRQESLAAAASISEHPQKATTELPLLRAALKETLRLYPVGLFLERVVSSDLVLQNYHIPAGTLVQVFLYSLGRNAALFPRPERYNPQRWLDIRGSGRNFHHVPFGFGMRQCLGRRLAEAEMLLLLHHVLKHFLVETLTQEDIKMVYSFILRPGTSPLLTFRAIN
Excerpt: as §1, §2, §3, §4, §5, §6, §7

| Compound | EC50 (human CYP11B1) [nM] | EC50 (human CYP11B2) [nM] |
| --- | --- | --- |
| CCS(=O)(=O)NC(C)c1cncc(-c2ccc3c(c2)CCC(=O)N3C)c1 (single isomer, unassigned) [Example 174, Ethanesulfonic acid {(S or R)-1-[5-(1-methyl-2-oxo-1,2,3,4-tetrahydro-quinolin-6-yl)-pyridin-3-yl]-ethyl}-amide] | 1230 | 33 |
| CCS(=O)(=O)NC(C)c1cncc(-c2cc3c(cc2F)N(C)C(=O)CC3)c1 (single isomer, unassigned) [Example 190, Ethanesulfonic acid {(R or S)-1-[5-(7-fluoro-1-methyl-2-oxo-1,2,3,4-tetrahydro-quinolin-6-yl)-pyridin-3-yl]-ethyl}-amide] | 442 | 7 |
| CCS(=O)(=O)NC(C)c1cncc(-c2cc3c(cc2F)N(C)C(=O)CC3)c1 (single isomer, unassigned) [Example 191, Ethanesulfonic acid {(S or R)-1-[5-(7-fluoro-1-methyl-2-oxo-1,2,3,4-tetrahydro-quinolin-6-yl)-pyridin-3-yl]-ethyl}-amide] | 777 | 10 |
| CC(NC(=O)c1ncccc1Cl)c1cncc(-c2ccc3c(c2)CCC(=O)N3C)c1 (single isomer, unassigned) [Example 230, 3-Chloro-pyridine-2-carboxylic acid {(R or S)-1-[5-(1-methyl-2-oxo-1,2,3,4-tetrahydro-quinolin-6-yl)-pyridin-3-yl]-ethyl}-amide] | 7 | 1 |
| Cc1c(-c2ccc3c(c2)CCC(=O)N3C)cncc1C(C)N[S@+]([O-])C(C)(C)C (single isomer, unassigned) [Example 239, (R)-2-Methyl-propane-2-sulfinic acid {(R or S)-1-[4-methyl-5-(1-methyl-2-oxo-1,2,3,4-tetrahydro-quinolin-6-yl)-pyridin-3-yl]-ethyl}-amide] | 401 | 21 |
| Cc1c(-c2ccc3c(c2)CCC(=O)N3C)cncc1C(C)N (single isomer, unassigned) [Example 240, 6-[5-((R or S)-1-Amino-ethyl)-4-methyl-pyridin-3-yl]-1-methyl-3,4-dihydro-1H-quinolin-2-one hydrochloride] | 15000 | 250 |
| Cc1c(-c2ccc3c(c2)CCC(=O)N3C)cncc1C(C)NC(=O)c1ncccc1Cl (single isomer, unassigned) [Example 241, 3-Chloro-pyridine-2-carboxylic acid {(R or S)-1-[4-methyl-5-(1-methyl-2-oxo-1,2,3,4-tetrahydro-quinolin-6-yl)-pyridin-3-yl]-ethyl}-amide] | 251 | 7 |
| Cc1noc(C)c1C(=O)NC(C)c1cncc(-c2ccc3c(c2)CCC(=O)N3C)c1C (single isomer, unassigned) [Example 242, 3,5-Dimethyl-isoxazole-4-carboxylic acid {(R or S)-1-[4-methyl-5-(1-methyl-2-oxo-1,2,3,4-tetrahydro-quinolin-6-yl)-pyridin-3-yl]-ethyl}-amide] | 3690 | 100 |
| CC(N[S@+]([O-])C(C)(C)C)c1cncc(-c2ccc3c(c2)CCC(=O)N3C)c1Cl (single isomer, unassigned) [Example 249, (R)-2-Methyl-propane-2-sulfinic acid {(R or S)-1-[4-chloro-5-(1-methyl-2-oxo-1,2,3,4-tetrahydro-quinolin-6-yl)-pyridin-3-yl]-ethyl}-amide] | 261 | 14 |
| CC(N)c1cncc(-c2ccc3c(c2)CCC(=O)N3C)c1Cl (single isomer, unassigned) [Example 250, 6-[5-((R or S)-1-Amino-ethyl)-4-chloro-pyridin-3-yl]-1-methyl-3,4-dihydro-1H-quinolin-2-one hydrochloride] | 1250 | 35 |
| CC(NC(=O)c1ncccc1Cl)c1cncc(-c2ccc3c(c2)CCC(=O)N3C)c1Cl (single isomer, unassigned) [Example 251, 3-Chloro-pyridine-2-carboxylic acid {(R or S)-1-[4-chloro-5-(1-methyl-2-oxo-1,2,3,4-tetrahydro-quinolin-6-yl)-pyridin-3-yl]-ethyl}-amide] | 6 | 1 |
| Cc1c(-c2cc3c(cc2F)N(C)C(=O)CC3)cncc1C(C)N[S@+]([O-])C(C)(C)C (single isomer, unassigned) [Example 252, (R)-2-Methyl-propane-2-sulfinic acid {(R or S)-1-[5-(7-fluoro-1-methyl-2-oxo-1,2,3,4-tetrahydro-quinolin-6-yl)-4-methyl-pyridin-3-yl]-ethyl}-amide] | 468 | 26 |
| Cc1c(-c2cc3c(cc2F)N(C)C(=O)CC3)cncc1C(C)N (single isomer, unassigned) [Example 253, 6-[5-((R or S)-1-Amino-ethyl)-4-methyl-pyridin-3-yl]-7-fluoro-1-methyl-3,4-dihydro-1H-quinolin-2-one hydrochloride] | 4480 | 193 |
| Cc1noc(C)c1C(=O)NC(C)c1cncc(-c2ccc3c(c2)CCC(=O)N3C)c1Cl (single isomer, unassigned) [Example 257, 3,5-Dimethyl-isoxazole-4-carboxylic acid {(R or S)-1-[4-chloro-5-(1-methyl-2-oxo-1,2,3,4-tetrahydro-quinolin-6-yl)-pyridin-3-yl]-ethyl}-amide] | 679 | 22 |
| Cc1c(-c2cc3c(cc2F)N(C)C(=O)CC3)cncc1C(C)NC(=O)c1ncccc1Cl (single isomer, unassigned) [Example 258, 3-Chloro-pyridine-2-carboxylic acid {(R or S)-1-[5-(7-fluoro-1-methyl-2-oxo-1,2,3,4-tetrahydro-quinolin-6-yl)-4-methyl-pyridin-3-yl]ethyl}-amide] | 291 | 13 |
| CCC(=O)NC(C)c1cncc(-c2ccc3c(c2)CCC(=O)N3C)c1Cl (single isomer, unassigned) [Example 261, N-{(R or S)-1-[4-Chloro-5-(1-methyl-2-oxo-1,2,3,4-tetrahydro-quinolin-6-yl)-pyridin-3-yl]-ethyl}-propionamide] | 1220 | 62 |
| CCC(=O)NC(C)c1cncc(-c2cc3c(cc2F)N(C)C(=O)CC3)c1C (single isomer, unassigned) [Example 264, N-{(R or S)-1-[5-(7-Fluoro-1-methyl-2-oxo-1,2,3,4-tetrahydro-quinolin-6-yl)-4-methyl-pyridin-3-yl]ethyl}-propionamide] | 2920 | 24 |
